Experimental data reported in the supplement of paper PMC10307832.

What was measured:
Experiment in all cases: relative viability (nuclei count vs DMSO), 5 days (fraction); higher = more cells survive
Dactolisib + Pictilisib = compound: Cn1c(=O)n(-c2ccc(C(C)(C)C#N)cc2)c2c3cc(-c4cnc5ccccc5c4)ccc3ncc21 [Dactolisib] + CS(=O)(=O)N1CCN(Cc2cc3nc(-c4cccc5[nH]ncc45)nc(N4CCOCC4)c3s2)CC1 [Pictilisib] (partner 1 µM)
Method in brief: (§1)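 Relative viability was taken as the ratio of nuclei in treated wells to nuclei in vehicle wells. Lung cancer cell lines in 1536-well plates received compounds by pin tool one day after seeding, either one drug alone or a fixed anchor-drug dose plus five library-drug doses (not always all listed) in √10 steps. Nuclei were counted on 4× images after 5 days of treatment, and values are medians of duplicate plates.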

AZ505 + Palbociclib = compound: C1CCC(CC1)N(CCNCCC2=C3C(=C(C=C2)O)NC(=O)CO3)C(=O)CCNCCC4=CC(=C(C=C4)Cl)Cl [AZ505] + CC(=O)c1c(C)c2cnc(Nc3ccc(N4CCNCC4)cn3)nc2n(C2CCCC2)c1=O [Palbociclib] (partner 0.5 µM)
Method in brief: as §1

Dactolisib + Olaparib = compound: Cn1c(=O)n(-c2ccc(C(C)(C)C#N)cc2)c2c3cc(-c4cnc5ccccc5c4)ccc3ncc21 [Dactolisib] + O=C(c1cc(Cc2n[nH]c(=O)c3ccccc23)ccc1F)N1CCN(C(=O)C2CC2)CC1 [Olaparib] (partner 8 µM)
Method in brief: as §1

Dactolisib + Palbociclib = compound: Cn1c(=O)n(-c2ccc(C(C)(C)C#N)cc2)c2c3cc(-c4cnc5ccccc5c4)ccc3ncc21 [Dactolisib] + CC(=O)c1c(C)c2cnc(Nc3ccc(N4CCNCC4)cn3)nc2n(C2CCCC2)c1=O [Palbociclib] (partner 0.5 µM)
Method in brief: as §1

Cell Line	relative viability (Dactolisib + Pictilisib; first compound 0.002 µM)	relative viability (Dactolisib + Pictilisib; first compound 0.006325 µM)	relative viability (Dactolisib + Pictilisib; first compound 0.02 µM)	relative viability (Dactolisib + Pictilisib; first compound 0.06325 µM)	relative viability (Dactolisib + Pictilisib; first compound 0.2 µM)	relative viability (AZ505 + Palbociclib; first compound 0.08 µM)	relative viability (AZ505 + Palbociclib; first compound 0.253 µM)	relative viability (AZ505 + Palbociclib; first compound 0.8 µM)	relative viability (AZ505 + Palbociclib; first compound 2.53 µM)	relative viability (AZ505 + Palbociclib; first compound 8 µM)	relative viability (Dactolisib + Olaparib; first compound 0.002 µM)	relative viability (Dactolisib + Olaparib; first compound 0.006325 µM)	relative viability (Dactolisib + Olaparib; first compound 0.02 µM)	relative viability (Dactolisib + Olaparib; first compound 0.06325 µM)	relative viability (Dactolisib + Olaparib; first compound 0.2 µM)	relative viability (Dactolisib + Palbociclib; first compound 0.002 µM)	relative viability (Dactolisib + Palbociclib; first compound 0.006325 µM)	relative viability (Dactolisib + Palbociclib; first compound 0.02 µM)	relative viability (Dactolisib + Palbociclib; first compound 0.06325 µM)	relative viability (Dactolisib + Palbociclib; first compound 0.2 µM)
NCI-H1651	0.654	0.514	0.449	0.328	0.265	0.512	0.517	0.502	0.498	0.523	0.187	0.173	0.178	0.208	0.215	0.532	0.487	0.463	0.348	0.231
NCI-H1666	0.417	0.405	0.438	0.383	0.366	0.625	0.648	0.621	0.72	0.601	0.955	0.683	0.874	0.713	0.747	0.628	0.624	0.673	0.622	0.579
NCI-H1734	0.468	0.395	0.39	0.26	0.216	0.351	0.373	0.324	0.411	0.338	0.644	0.548	0.471	0.405	0.266	0.344	0.356	0.314	0.228	0.201
NCI-H1755	0.47	0.471	0.451	0.368	0.274	0.42	0.46	0.434	0.441	0.442	0.987	0.886	0.86	0.733	0.476	0.482	0.423	0.42	0.388	0.38
NCI-H1792	0.323	0.246	0.218	0.0901	0.0962	0.642		0.619	0.612	0.696	0.427	0.319	0.394	0.135	0.101	0.676	0.651	0.568	0.34	0.271
NCI-H1793	0.311	0.315	0.175	0.211	0.203	0.293	0.271	0.3	0.307	0.347	0.784	0.299	0.254	0.18	0.169	0.289	0.212	0.21	0.212	0.19
NCI-H1915	1.01	0.952	0.944	0.513	0.483	0.528	0.528	0.478	0.44	0.473	0.254	0.253	0.293	0.264	0.246	0.609	0.496	0.557	0.317	0.262
NCI-H1944	0.36	0.334	0.305	0.233	0.253	0.346	0.325	0.339	0.3	0.308	0.548	0.386	0.397	0.265	0.21	0.403	0.334	0.23	0.192	0.181
NCI-H1975	0.26	0.27	0.232	0.2	0.175	0.531	0.473	0.505	0.621	0.564	0.778	0.817	0.632	0.302	0.269	0.551	0.561	0.536	0.182	0.129
NCI-H1993	0.99	0.85	0.804	0.705	0.834	0.599	0.705	0.621	0.583	0.713	1.29	0.865	0.827	0.432	0.37	0.605	0.524	0.439	0.424	0.354
NCI-H2009	0.961	0.853	0.727	0.498	0.322	0.191	0.203	0.174	0.153	0.235	0.656	0.692	0.65	0.759	0.312	0.235	0.202	0.235	0.153	0.118
NCI-H2023	0.205	0.212	0.173	0.121	0.108	0.368	0.405	0.345	0.365	0.345	0.484	0.43	0.281	0.122	0.0803	0.395	0.297	0.274	0.106	0.0901
NCI-H2085	0.372	0.472	0.352	0.332	0.396	0.451	0.469	0.459	0.477	0.446	0.887	0.778	0.689	0.513	0.359	0.491	0.446	0.382	0.373	0.308
NCI-H2087	1.02	0.867	0.714	0.463	0.336	0.225	0.27	0.312	0.22	0.197	0.719	0.474	0.631	0.197	0.243	0.275	0.232	0.221	0.172	0.142
NCI-H2126	0.563	0.461	0.434	0.425	0.368	0.353	0.375	0.365	0.366	0.338	0.975	0.895	0.878	0.514	0.44	0.369	0.359	0.33	0.352	0.316
NCI-H2170	0.305	0.311	0.289	0.22	0.224	0.38	0.39	0.379	0.401	0.434	0.535	0.533	0.601	0.389	0.255	0.379	0.385	0.316	0.205	0.167
